Results taken from patent US20040258620A1, “(Ethylene)-( propylene)-triaminepentaacetic acid derivatives, process for their production, and their use for the production of pharmaceutical agents” (priority 2001, published 2004).

Test: 17O NMR on Gd(TRITA-bz-NO2)
Format: physicochemical
Conditions: for A/ħ / ER / ΔH^x / ΔS* / τR^298: from ^17O NMR data; for kex^298: water exchange rate from ^17O NMR data; for In(1/T1r), reduced longitudinal ^17O relaxation rate / In(1/T2r), reduced transverse ^17O relaxation rate / Δwr, reduced ^17O chemical shift: B = 9.4 Tesla
From the text: The rate of water exchange, Kes, has been measured on Gd(TRITA-bz-NO2) by ^17O NMR. The numerical experimental data (reduced transverse and longitudinal ^17O relaxation rates, reduced chemical shifts) measured on a Gd(TRITA-bz-NO2) solution are shown in Table 6.

O=C([O-])CN1CCN(CC(=O)[O-])CCN(CC(=O)[O-])CCN(CC(=O)[O-])CC1.[Gd+3] [Gd(DOTA)(H2O)^−, reference compound]
A/ħ: −3.7 10^6 rad s^−1 | ER: 3.85 kcal/mol | ΔH^x: 11.9 kcal/mol | ΔS*: +10.5 Jmol^−1K^−1 | τR^298: 77 ps | kex^298: 4.1 10^6 s^−1

O=C([O-])CN1CCN(CC(=O)[O-])CCN(CC(=O)[O-])CC(Cc2ccc([N+](=O)[O-])cc2)CN(CC(=O)[O-])CC1.[Gd+3] [Gd(TRITA-bz-NO2)]
water exchange rate Kex^298: 1.8e+08 s⁻¹ | In(1/T1r), reduced longitudinal ^17O relaxation rate (T 273.05 K): 11.42 | In(1/T2r), reduced transverse ^17O relaxation rate (T 273.05 K): 13.55 | Δwr, reduced ^17O chemical shift (T 273.05 K): −9.34E+05 Hz | In(1/T1r), reduced longitudinal ^17O relaxation rate (T 281.75 K): 11.08 | In(1/T2r), reduced transverse ^17O relaxation rate (T 281.75 K): 13.31 | Δwr, reduced ^17O chemical shift (T 281.75 K): −9.23E+05 Hz | In(1/T1r), reduced longitudinal ^17O relaxation rate (T 292.45 K): 10.60 | In(1/T2r), reduced transverse ^17O relaxation rate (T 292.45 K): 12.96 | Δwr, reduced ^17O chemical shift (T 292.45 K): −9.15E+05 Hz | In(1/T1r), reduced longitudinal ^17O relaxation rate (T 302.25 K): 10.44 | In(1/T2r), reduced transverse ^17O relaxation rate (T 302.25 K): 12.54 | Δwr, reduced ^17O chemical shift (T 302.25 K): −8.72E+05 Hz | In(1/T1r), reduced longitudinal ^17O relaxation rate (T 317.25 K): 9.97 | In(1/T2r), reduced transverse ^17O relaxation rate (T 317.25 K): 12.03 | Δwr, reduced ^17O chemical shift (T 317.25 K): −8.28E+05 Hz | In(1/T1r), reduced longitudinal ^17O relaxation rate (T 330.25 K): 9.58 | In(1/T2r), reduced transverse ^17O relaxation rate (T 330.25 K): 11.56 | Δwr, reduced ^17O chemical shift (T 330.25 K): −7.07E+05 Hz | In(1/T1r), reduced longitudinal ^17O relaxation rate (T 349.45 K): 9.14 | In(1/T2r), reduced transverse ^17O relaxation rate (T 349.45 K): 11.06 | Δwr, reduced ^17O chemical shift (T 349.45 K): −6.13E+05 Hz | inner sphere water molecules of the complex (according to the ^17O chemical shifts): 1 | A/ħ: −3.5 ± 0.2 10^6 rad s^−1 | ER: 5.57 ± 0.406 kcal/mol | ΔH^x: 6.41 ± 0.19 kcal/mol | ΔS*: +3.0 ± 1.0 Jmol^−1K^−1 | τR^298: 223 ± 20 ps | water exchange rate, times higher than that measured on Gd(DOTA) (relative to Gd(DOTA)): over 40 times | kex^298: 180 ± 10 10^6 s^−1
